# Laboratory results as given in article PMC8016998, “Identification of potential therapeutic antimicrobial peptides against Acinetobacter baumannii in a mouse model of pneumonia” (Scientific Reports, 2021).
# No end group written: not given here.
# Assays:
# [1] = test system: MDRAB clinical strain AK29; type: cell-based, Acinetobacter baumannii; conditions: 24 h
# Procedure: (§1) MBC were determined by extending the MIC procedure in sterilized 96-well polypropylene microtiter plates according to the broth microdilution guidelines of the Clinical and Laboratory Standards Institute with some modification[47]. […] In addition, 10 µL was drawn from each well with no visible turbidity onto LB agar plates and incubated for 24 h at 37 °C. The lowest concentration showing no visible growth on agar subculture was used as the MBC value. All experiments were performed in triplicate.
# MDRAB clinical strains = type: cell-based, Acinetobacter baumannii; conditions: 24 h
# [2] = test system: MDRAB clinical strain AF93; type: cell-based, Acinetobacter baumannii; conditions: 24 h
# Procedure: as §1
# [3] = test system: MDRAB clinical strain J49; type: cell-based, Acinetobacter baumannii; conditions: 24 h
# Procedure: as §1
# [4] = test system: MDRAB clinical strain W11; type: cell-based, Acinetobacter baumannii; conditions: 24 h
# Procedure: as §1
# [5] = test system: MDRAB clinical strain Y92; type: cell-based, Acinetobacter baumannii; conditions: 24 h
# [6] = test system: MDRAB clinical strain D29; type: cell-based, Acinetobacter baumannii; conditions: 24 h
# [7] = test system: Acinetobacter baumannii 17,978; type: cell-based; conditions: 17,978, 24 h;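 also: CLSI broth microdilution in 96-well polypropylene plates, MBC taken as lowest concentration giving no growth when clear wells were subcultured on LB agar for 24 h at 37 °C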
# Procedure: as §1
# [8] = test system: MDRAB clinical strain AL87; type: cell-based, Acinetobacter baumannii; conditions: 24 h
# [9] = test system: MDRAB clinical strain AE5; type: cell-based, Acinetobacter baumannii; conditions: 24 h
# [10] = test system: MDRAB clinical strain AE6; type: cell-based, Acinetobacter baumannii; conditions: 24 h
# [11] = test system: MDRAB clinical strain L87; type: cell-based, Acinetobacter baumannii; conditions: 24 h
# Procedure: as §1
# [12] = test system: MDRAB clinical strain AG51; type: cell-based, Acinetobacter baumannii; conditions: 24 h
# [13] = test system: MDRAB clinical strain AF11; type: cell-based, Acinetobacter baumannii; conditions: 24 h
# [14] = test system: MDRAB clinical strain AF12; type: cell-based, Acinetobacter baumannii; conditions: 24 h
# Procedure: as §1
# [15] = test system: MDRAB clinical strain U95; type: cell-based, Acinetobacter baumannii; conditions: 24 h
# [16] = test system: MDRAB clinical strain AS40; type: cell-based, Acinetobacter baumannii; conditions: 24 h
# [17] = test system: MDRAB clinical strain AK61; type: cell-based, Acinetobacter baumannii; conditions: 24 h
# [18] = test system: MDRAB clinical strain AN10; type: cell-based, Acinetobacter baumannii; conditions: 24 h
# Procedure: as §1
# [19] = test system: Acinetobacter baumannii 19,606; type: cell-based; conditions: 19,606, 24 h
# [20] = test system: MDRAB clinical strain O59; type: cell-based, Acinetobacter baumannii; conditions: 24 h
# Procedure: as §1
# [21] = test system: MDRAB clinical strain AZ93; type: cell-based, Acinetobacter baumannii; conditions: 24 h
# Procedure: as §1
# MDRAB clinical strain K2 = type: cell-based, Acinetobacter baumannii; conditions: 24 h
# Procedure: as §1
# [22] = test system: MDRAB clinical strain AO80; type: cell-based, Acinetobacter baumannii; conditions: 24 h
# Procedure: as §1
# [23] = test system: MDRAB clinical strain U80; type: cell-based, Acinetobacter baumannii; conditions: 24 h
# Procedure: as §1
sequence,measurement,setting,value
GIKIAKKAITIAKKIAKIYW [GW-Q6],MBC,[1],8 µg/mL
same,MIC,[1],8 µg/mL
same,MBC,MDRAB clinical strains,8 to 32 µg/mL
same,MIC,MDRAB clinical strains,8 to 16 µg/mL
same,MBC,[2],16 µg/mL
same,MIC,[2],8 µg/mL
same,MBC,[3],16 µg/mL
same,MIC,[3],16 µg/mL
same,MBC,[4],16 µg/mL
same,MIC,[4],16 µg/mL
same,MBC,[5],8 µg/mL
same,MIC,[5],8 µg/mL
same,MBC,[6],32 µg/mL
same,MIC,[6],16 µg/mL
same,MBC,[7],16 µg/mL
same,MIC,[7],16 µg/mL
same,MBC,[8],8 µg/mL
same,MIC,[8],8 µg/mL
same,MBC,[9],8 µg/mL
same,MIC,[9],8 µg/mL
same,MBC,[10],8 µg/mL
same,MIC,[10],8 µg/mL
same,MBC,[11],16 µg/mL
same,MIC,[11],16 µg/mL
same,MBC,[12],8 µg/mL
same,MIC,[12],8 µg/mL
same,MBC,[13],8 µg/mL
same,MIC,[13],8 µg/mL
same,MBC,[14],8 µg/mL
same,MIC,[14],8 µg/mL
same,MBC,[15],32 µg/mL
same,MIC,[15],16 µg/mL
same,MBC,[16],16 µg/mL
same,MIC,[16],16 µg/mL
same,MBC,[17],16 µg/mL
same,MIC,[17],16 µg/mL
same,MBC,[18],8 µg/mL
same,MIC,[18],8 µg/mL
same,MBC,[19],16 µg/mL
same,MIC,[19],16 µg/mL
same,MBC,[20],32 µg/mL
same,MIC,[20],16 µg/mL
same,MBC,[21],8 µg/mL
same,MIC,[21],8 µg/mL
same,MBC,MDRAB clinical strain K2,8 µg/mL
same,MIC,MDRAB clinical strain K2,8 µg/mL
same,MBC,[22],16 µg/mL
same,MIC,[22],16 µg/mL
same,MBC,[23],16 µg/mL
same,MIC,[23],16 µg/mL
GRFKRFRKKFKKLFKKLSPVIPLLHLG [BMAP-27],MBC,[1],8 µg/mL
same,MIC,[1],4 µg/mL
same,MIC,MDRAB clinical strains,4 to 16 µg/mL
same,MBC,[2],8 µg/mL
same,MIC,[2],8 µg/mL
same,MBC,[3],8 µg/mL
same,MIC,[3],8 µg/mL
same,MBC,[4],16 µg/mL
same,MIC,[4],16 µg/mL
same,MBC,[5],8 µg/mL
same,MIC,[5],8 µg/mL
same,MBC,[6],16 µg/mL
same,MIC,[6],16 µg/mL
same,MBC,[7],16 µg/mL
same,MIC,[7],16 µg/mL
same,MBC,[8],8 µg/mL
same,MIC,[8],8 µg/mL
same,MBC,[9],16 µg/mL
same,MIC,[9],8 µg/mL
same,MBC,[10],16 µg/mL
same,MIC,[10],16 µg/mL
same,MBC,[11],16 µg/mL
same,MIC,[11],16 µg/mL
same,MBC,[12],8 µg/mL
same,MIC,[12],4 µg/mL
same,MBC,[13],16 µg/mL
same,MIC,[13],8 µg/mL
same,MBC,[14],8 µg/mL
same,MIC,[14],8 µg/mL
same,MBC,[15],16 µg/mL
same,MIC,[15],16 µg/mL
same,MBC,[16],8 µg/mL
same,MIC,[16],8 µg/mL
same,MBC,[17],8 µg/mL
same,MIC,[17],8 µg/mL
same,MBC,[18],4 µg/mL
same,MIC,[18],4 µg/mL
same,MBC,[19],8 µg/mL
same,MIC,[19],8 µg/mL
same,MBC,[20],16 µg/mL
same,MIC,[20],16 µg/mL
same,MBC,[21],8 µg/mL
same,MIC,[21],8 µg/mL
same,MBC,MDRAB clinical strain K2,32 µg/mL
same,MIC,MDRAB clinical strain K2,16 µg/mL
same,MBC,[22],8 µg/mL
same,MIC,[22],8 µg/mL
same,MBC,[23],16 µg/mL
same,MIC,[23],8 µg/mL
